Results: PubChem BioAssay AID1259411 (Chemical Carcinogenesis Research Information System (CCRIS), 2018)
The source made the active and inactive calls. How the calls were made is not given here.

System: rodent carcinogenicity bioassays, tumor incidence
Test: CCRIS carcinogenicity studies
Summary of the method: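 NCI-built, expert-reviewed records of carcinogenicity and related test outcomes (mutagenicity, tumor promotion/inhibition) compiled from published and report sources, historical span 1985-2011, not updated.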

C=Cc1ccccc1
carcinogen call (Species: MOUSE, Strain/Sex: B6C3F1/FEMALE, Route: GAVAGE, Dose: 0, 150, 300 MG/KG FOR 78 WK (STUDY DURATION: 91 WK), Dose: 0, 150, 300 MG/KG FOR 78 WK (STUDY DURATION: 91 WK)): inactive; negative
carcinogen call (Species: MOUSE, Strain/Sex: B6C3F1/MALE, Route: GAVAGE, Dose: 0, 150, 300 MG/KG FOR 78 WK (STUDY DURATION: 91 WK), Dose: 0, 150, 300 MG/KG FOR 78 WK (STUDY DURATION: 91 WK), Tumor Site: Type of Lesion: LUNG: ADENOMA, CARCINOMA): equivocal
carcinogen call (Species: MOUSE, Strain/Sex: C57BL/FEMALE, Route: GAVAGE, Dose: 0, 300 MG/KG BW IN 0.1 ML OLIVE OIL FOR LIFE BEGINNING POST WEANING ADMINISTERED TO OFFSPRING OF FEMALES GIVEN 1350 MG/K): inactive; negative
carcinogen call (Species: MOUSE, Strain/Sex: C57BL/FEMALE, Route: GAVAGE, Dose: 0, 300 MG/KG BW IN 0.1 ML OLIVE OIL ONCE ON DAY 17 OF PREGNANCY (STUDY DURATION: 120 WK)): inactive; negative
carcinogen call (Species: MOUSE, Strain/Sex: C57BL/MALE, Route: GAVAGE, Dose: 0, 300 MG/KG BW IN 0.1 ML OLIVE OIL FOR LIFE BEGINNING POST WEANING ADMINISTERED TO OFFSPRING OF FEMALES GIVEN 300 MG/KG): inactive; negative
carcinogen call (Species: MOUSE, Strain/Sex: CD-1/FEMALE, Route: INHALATION, Dose: 0, 20, 40, 80, 160 PPM IN CHAMBER FOR 6 HR/D 5D/WK FOR 98 WK (STUDY DURATION: 98 WK), Dose: 0, 20, 40, 80, 160 PPM IN CHAMBER FOR 6 HR/D 5D/WK FOR 98 WK (STUDY DURATION: 98 WK), Tumor Site: Type of Lesion: LUNG: BRONCHIOLOALVEOLAR ADENOMA, BRONCHIOLOALVEOLAR CARCINOMA): active; positive
carcinogen call (Species: MOUSE, Strain/Sex: CD-1/MALE, Route: INHALATION, Dose: 0, 20, 40, 80, 160 PPM IN CHAMBER FOR 6 HR/D 5D/WK FOR 104 WK (STUDY DURATION: 104 WK), Dose: 0, 20, 40, 80, 160 PPM IN CHAMBER FOR 6 HR/D 5D/WK FOR 104 WK (STUDY DURATION: 104 WK), Tumor Site: Type of Lesion: LUNG: BRONCHIOLOALVEOLAR ADENOMA): active; positive
carcinogen call (Species: MOUSE, Strain/Sex: O20/FEMALE, Route: GAVAGE, Dose: 0, 1350 MG/KG BW IN 0.1 ML OLIVE OIL FOR 16 WK POST WEANING ADMINISTERED TO OFFSPRING OF FEMALES GIVEN 1350 MG/KG ON DAY, Tumor Site: Type of Lesion: LUNG: ADENOMA OR CARCINOMA): active; positive
carcinogen call (Species: MOUSE, Strain/Sex: O20/FEMALE, Route: GAVAGE, Dose: 0, 1350 MG/KG BW IN 0.1 ML OLIVE OIL ONCE ON DAY 17 OF PREGNANCY (STUDY DURATION: 120 WK)): inactive; negative
carcinogen call (Species: MOUSE, Strain/Sex: O20/MALE,FEMALE, Route: GAVAGE, Tumor Site: Type of Lesion: LUNG: ADENOMA, ADENOCARCINOMA): active; positive
carcinogen call (Species: MOUSE, Strain/Sex: O20/MALE, Route: GAVAGE, Dose: 0, 1350 MG/KG BW IN 0.1 ML OLIVE OIL FOR 16 WK POST WEANING ADMINISTERED TO OFFSPRING OF FEMALES GIVEN 1350 MG/KG ON DAY, Tumor Site: Type of Lesion: LUNG: ADENOMA OR CARCINOMA): active; positive
carcinogen call (Species: MOUSE, Strain/Sex: STRAIN-A/FEMALE, Route: INTRAPERITONEAL, Dose: 0, 10 UMOL IN 0.1 ML OLIVE OIL 3/WK FOR 20 DOSES (TOTAL DOSE: 200 UMOL) (STUDY DURATION: 27 WK)): inactive; negative
carcinogen call (Species: RAT, Strain/Sex: BDIV/FEMALE, Route: GAVAGE, Dose: 0, 500 MG/KG BW IN 0.3 ML OLIVE OIL FOR LIFE BEGINNING POST WEANING ADMINISTERED TO OFFSPRING OF FEMALES GIVEN 1350 MG/K): inactive; negative
carcinogen call (Species: RAT, Strain/Sex: BDIV/FEMALE, Route: GAVAGE, Dose: 0, 1350 MG/KG BW IN 0.3 ML OLIVE OIL ONCE ON DAY 17 OF PREGNANCY (STUDY DURATION: 120 WK)): inactive; negative
carcinogen call (Species: RAT, Strain/Sex: BDIV/MALE, Route: GAVAGE, Dose: 0, 500 MG/KG BW IN 0.3 ML OLIVE OIL FOR LIFE BEGINNING POST WEANING ADMINISTERED TO OFFSPRING OF FEMALES GIVEN 1350 MG/K): inactive; negative
carcinogen call (Species: RAT, Strain/Sex: F344/FEMALE, Route: GAVAGE, Dose: 0, 500 MG/KG FOR 103 WK (STUDY DURATION: 104 WK), 1,000, 2,000 MG/KG FOR 78 WK (STUDY DURATION: 105 WK), Dose: 0, 500 MG/KG FOR 103 WK (STUDY DURATION: 104 WK), 1,000, 2,000 MG/KG FOR 78 WK (STUDY DURATION: 105 WK)): inactive; negative
carcinogen call (Species: RAT, Strain/Sex: F344/MALE, Route: GAVAGE, Dose: 0, 500 MG/KG FOR 103 WK (STUDY DURATION: 104 WK), 1,000, 2,000 MG/KG FOR 78 WK (STUDY DURATION: 105 WK), Dose: 0, 500 MG/KG FOR 103 WK (STUDY DURATION: 104 WK), 1,000, 2,000 MG/KG FOR 78 WK (STUDY DURATION: 105 WK)): inactive; negative
carcinogen call (Species: RAT, Strain/Sex: SPRAGUE-DAWLEY/FEMALE, Route: GAVAGE, Dose: 0, 50, 250 MG/KG BW IN OLIVE OIL 1/D 4-5 D/WK FOR 52 WK (STUDY DURATION: LIFETIME), Dose: 0, 50, 250 MG/KG BW IN OLIVE OIL 1/D 4-5 D/WK FOR 52 WK (STUDY DURATION: LIFETIME), Tumor Site: Type of Lesion: [BRAIN WAS ONLY SITE EVALUATED]): inactive; negative
carcinogen call (Species: RAT, Strain/Sex: SPRAGUE-DAWLEY/FEMALE, Route: INHALATION, Dose: 0, 25, 50, 100, 200, 300 PPM 4 HR/D, 5 D/WK FOR 52 WK (STUDY DURATION: LIFESPAN), Dose: 0, 25, 50, 100, 200, 300 PPM 4 HR/D, 5 D/WK FOR 52 WK (STUDY DURATION: LIFESPAN), Tumor Site: Type of Lesion: MAMMARY GLAND: BENIGN TUMOR, MALIGNANT TUMOR): active; positive
carcinogen call (Species: RAT, Strain/Sex: SPRAGUE-DAWLEY/FEMALE, Route: INHALATION, Dose: 0, 25, 50, 100, 200, 300 PPM IN AIR 4 HR/D 5 D/WK FOR 52 WK (STUDY DURATION: LIFETIME), Dose: 0, 25, 50, 100, 200, 300 PPM IN AIR 4 HR/D 5 D/WK FOR 52 WK (STUDY DURATION: LIFETIME), Tumor Site: Type of Lesion: [BRAIN WAS ONLY SITE EVALUATED]): inactive; negative
carcinogen call (Species: RAT, Strain/Sex: SPRAGUE-DAWLEY/FEMALE, Route: INTRAGASTRIC, Dose: 0, 50, 250 MG/KG IN OLIVE OIL 1/D, 4-5 D/WK FOR 52 WK (STUDY DURATION: LIFESPAN), Dose: 0, 50, 250 MG/KG IN OLIVE OIL 1/D, 4-5 D/WK FOR 52 WK (STUDY DURATION: LIFESPAN)): inactive; negative
carcinogen call (Species: RAT, Strain/Sex: SPRAGUE-DAWLEY/FEMALE, Route: INTRAPERITONEAL, Dose: 0, 50 MG/RAT IN OLIVE OIL, 1/2 MO FOR 8 MO (STUDY DURATION: LIFESPAN)): inactive; negative
carcinogen call (Species: RAT, Strain/Sex: SPRAGUE-DAWLEY/FEMALE, Route: SUBCUTANEOUS, Dose: 0, 50 MG/RAT IN OLIVE OIL ONCE (STUDY DURATION: LIFESPAN)): inactive; negative
carcinogen call (Species: RAT, Strain/Sex: SPRAGUE-DAWLEY/MALE, Route: GAVAGE, Dose: 0, 50, 250 MG/KG BW IN OLIVE OIL 1/D 4-5 D/WK FOR 52 WK (STUDY DURATION: LIFETIME), Dose: 0, 50, 250 MG/KG BW IN OLIVE OIL 1/D 4-5 D/WK FOR 52 WK (STUDY DURATION: LIFETIME), Tumor Site: Type of Lesion: [BRAIN WAS ONLY SITE EVALUATED]): inactive; negative
carcinogen call (Species: RAT, Strain/Sex: SPRAGUE-DAWLEY/MALE, Route: INHALATION, Dose: 0, 25, 50, 100, 200, 300 PPM 4 HR/D, 5 D/WK FOR 52 WK (STUDY DURATION: LIFESPAN), Dose: 0, 25, 50, 100, 200, 300 PPM 4 HR/D, 5 D/WK FOR 52 WK (STUDY DURATION: LIFESPAN)): inactive; negative
carcinogen call (Species: RAT, Strain/Sex: SPRAGUE-DAWLEY/MALE, Route: INHALATION, Dose: 0, 25, 50, 100, 200, 300 PPM IN AIR 4 HR/D 5 D/WK FOR 52 WK (STUDY DURATION: LIFETIME), Dose: 0, 25, 50, 100, 200, 300 PPM IN AIR 4 HR/D 5 D/WK FOR 52 WK (STUDY DURATION: LIFETIME), Tumor Site: Type of Lesion: [BRAIN WAS ONLY SITE EVALUATED]): inactive; negative
carcinogen call (Species: RAT, Strain/Sex: SPRAGUE-DAWLEY/MALE, Route: INTRAGASTRIC, Dose: 0, 50, 250 MG/KG IN OLIVE OIL 1/D, 4-5 D/WK FOR 52 WK (STUDY DURATION: LIFESPAN), Dose: 0, 50, 250 MG/KG IN OLIVE OIL 1/D, 4-5 D/WK FOR 52 WK (STUDY DURATION: LIFESPAN)): inactive; negative
carcinogen call (Species: RAT, Strain/Sex: SPRAGUE-DAWLEY/MALE, Route: INTRAPERITONEAL, Dose: 0, 50 MG/RAT IN OLIVE OIL, 1/2 MO FOR 8 MO (STUDY DURATION: LIFESPAN)): inactive; negative
carcinogen call (Species: RAT, Strain/Sex: SPRAGUE-DAWLEY/MALE, Route: SUBCUTANEOUS, Dose: 0, 50 MG/RAT IN OLIVE OIL ONCE (STUDY DURATION: LIFESPAN)): inactive; negative
carcinogen call (Species: RAT, Strain/Sex: STRAIN-CD/FEMALE, Route: INHALATION, Dose: 0, 50, 200, 500, 1000 PPM 6HR/D 5 D/WK FOR 104 WK (STUDY DURATION:107 WK), Dose: 0, 50, 200, 500, 1000 PPM 6HR/D 5 D/WK FOR 104 WK (STUDY DURATION:107 WK)): inactive; negative
carcinogen call (Species: RAT, Strain/Sex: STRAIN-CD/MALE, Route: INHALATION, Dose: 0, 50, 200, 500, 1000 PPM 6 HR/D 5 D/WK FOR 104 WK (STUDY DURATION:107 WK), Dose: 0, 50, 200, 500, 1000 PPM 6 HR/D 5 D/WK FOR 104 WK (STUDY DURATION:107 WK)): inactive; negative
